Holding throughout (type): cell-based
Experiment [1] relates to PMN's (polymorphonuclear leukocytes). The experiment in a line: Neutrophil oxidative burst. The settings on record: Leukocyte, 40 min; 40 min incubation at rt; normalised to 5×10^−7 M PEP0005; read-out: Neutrophil oxidative burst Rel EC50 range. As to the method: PMN's (polymorphonuclear leukocytes) are isolated and purified from fresh buffy coats by sequential sedimentation, density centrifugation and lysis of contaminating erythrocytes. In brief, buffy coats are incubated with 2% methocel for 30-45 min to differentially sediment red blood cells. The leukocyte-rich supernatant is transferred to lymphoprep tubes to remove mononuclear cells by density centrifugation (400×g, 30 min). The pellet is resuspended and any remaining erythrocytes lysed using 0.2% NaCl for 30 sec before restoring isotonicity by the addition of 1.2% NaCl. This step is repeated until the cell pellet appears relatively free of red blood cells. Cells are resuspended in DPBS (Dulbecco's Phosphate Buffered Saline) (w.o. Ca^2+, Mg^2+) and the concentration adjusted to 1.4×10^6 cells/ml in HBSS (Hanks Balanced Salt solution) (w Ca^2+, Mg^2+) containing 0.1% BSA (Bovine Serum Albumin) and 5 mM glucose just prior to assay initiation. Titrated reference and test compounds are pre-mixed with HE (Hydroethidine) (10 μM final assay concentration) before addition to 96-well plates containing 2.5×10^5 cells. Following 40 min incubation at rt, changes in the respiratory burst is estimated by measuring fluorescence at 579 nm (excitation: 485 nm) using an Envision plate reader.
Test compound titration curves are fitted to a four-parameter sigmoidal curve after normalizing the effect of the test compound to the effect of the positive control (5×10^−7 M PEP0005). Rel EC50 denotes the concentration of test compound producing an effect that is midway between the fitted top and bottom. Abs EC50 is the concentration of test compound that provokes a response corresponding to 50% of the maximal effect associated with the positive control (5×10^−7 M PEP0005).

Experiment [2] relates to Primary human epidermal keratinocytes, HeKa. As to the kind of experiment: HeKa cytokine release (IL-8). Conditions: 6 h at 37° C., normalised to 1.5×10^−7 M PEP0005, read-out: HeKa cytokine release (IL-8) Rel EC50 range. How it is done:
Primary human epidermal keratinocytes, HeKa, are seeded (10.000 cells/well) in 96-well plates the day before the assay. Test compounds are diluted in DMSO (dimethyl sulfoxide) and further diluted in assay medium and pipetted into wells of 96 well-plates containing HeKa cells. The plates are incubated for 6 h at 37° C. in humidified air with 5% CO2. Plates are centrifuged briefly to spin down cells at 4° C., the supernatant is removed and analysed by Meso Scale Discovery (MSD) 4-spot cytokine assay (Pro-inflammatory II Ultra Sensitive kit, MSD, MD, USA). The MSD assay employs a sandwich immunoassay format where capture antibodies are coated in a patterned array on the bottom of the wells of a 4-Spot-Multi-MSD plate. Standard samples are incubated in the MULTI-SPOT plates as well, and the cytokine (IL-8) binds to its corresponding capture antibody spot. The cytokine level is quantitated on a SECTOR™ Imager using a cytokine-specific Detection Antibody labelled with MSD SULFO-TAG™ reagent.
Test compound titration curves are fitted to a four-parameter sigmoidal curve after normalizing the effect of the test compound to the effect of the positive control (1.5×10^−7 M PEP0005). Rel EC50 denotes the concentration of test compound producing an effect that is midway between the fitted top and bottom.

Experiment [3] has as its system HeLa cells. As to the kind of experiment: Necrosis assay. Conditions: Homo sapiens, 0.5 h, 30 min at 37° C., PrestoBlue, normalised to 4 10^−4 M PEP0005/ingenol mebutate, read-out: HeLa necrosis EC50 range. How it is done:
HeLa cells (ATCC CCL-002) were grown in minimal essential medium (Invitrogen catalog no. 42360) containing 10% fetal bovine serum, 100 IU/ml penicillin and 100 μg/ml streptomycin. 4,000-6,000 cells were seeded into 96-well black ViewPlates-plates, clear bottom, (Perkin Elmer) in 100 μl medium and incubated overnight. Compounds were dissolved and pre-diluted in DMSO in 96-well polypropylene plates (Greiner) in a concentration range of 15 μM to 600 μM. At the time of the experiment cell plates were placed on heating blocks at 37° C., medium was removed and 40 μl fresh, pre-warmed medium was added per well. Cells were incubated for 15 min before addition of compounds. In parallel, 3 μl of compounds were diluted with 197 μl growth medium on a Tecan freedom-EVO pipetting station using 250 μl/s pipetting speed, in order to ensure effective mixing of the highly concentrated compound solutions with the aqueous phase.
These pre-dilution plates were then equilibrated on heating blocks at 37° C. for 10 min. 80 μl pre-diluted compound were transferred manually to the corresponding wells containing HeLa cells yielding compound concentrations of 10 μM to 400 μM. Control conditions were 1% DMSO in growth medium (100% viability) and 400 μM ingenol mebutate in growth medium (0% viability). Plates were incubated on the heating blocks at 37° C. for 30 min. At the end of the incubation 10 μl PrestoBlue reagent (Invitrogen) were added to each well, plates were sealed with black seal, followed by incubation at 37° C. for 10 min with gentle shaking (150 rpm). Subsequently, plates were placed at room temperature for 20-30 min. Plates were read immediately after on an Envision Fluorescence reader (Perkin Elmer) with excitation at 535 nm and emission at 630 nm. Test compound titration curves were fitted to a four-parameter sigmoidal curve after normalizing the effect of the test compound to the effect of the positive control (4 10^−4 M PEP0005/ingenol mebutate). Abs EC50 denotes the concentration of test compound producing 50% effect.

For orientation: EC50 means the concentration that produces a half-maximal response. As for `CC1=C[C@]23C(=O)[C@@H](C=C(CO)[C@@H](O)[C@]2(O)[C@H]1Oc1cccc(C(F)(F)F)n1)[C@H]1[C@@H](C[C@H]3C)C1(C)C` [Compound 117, 3-O-(6-(Trifluoromethyl)-2-pyridyl)-ingenol], the EC50 in experiment [1] was at least 0.1 µM; in experiment [2], at least 0.1 µM; in experiment [3], at least 350 µM.
Turning to `CC1=C[C@]23C(=O)[C@@H](C=C(CO)[C@@H](O)[C@]2(O)[C@H]1Oc1ncccc1C(F)(F)F)[C@H]1[C@@H](C[C@H]3C)C1(C)C` [Compound 118, 3-O-(3-(Trifluoromethyl)-2-pyridyl)-ingenol], the EC50 in experiment [1] is under 0.02 µM; in experiment [2] it was 0.02 to 0.1 µM; in experiment [3], under 150 µM.
As for `CC1=C[C@]23C(=O)[C@@H](C=C(CO)[C@@H](O)[C@]2(O)[C@H]1Oc1nccc2ccccc12)[C@H]1[C@@H](C[C@H]3C)C1(C)C` [Compound 119, 3-O-(1-Isoquinolyl)-ingenol], the EC50 in experiment [1] is 0.02 to 0.1 µM; in experiment [2], under 0.02 µM; in experiment [3] it was 150 to 350 µM.
The like results for `CC1=C[C@]23C(=O)[C@@H](C=C(CO)[C@@H](O)[C@]2(O)[C@H]1Oc1nccn1C1CCCC1)[C@H]1[C@@H](C[C@H]3C)C1(C)C` [Compound 120, 3-O-(1-Cyclopentylimidazol-2-yl)-ingenol] were, in that order, under 0.02 µM, under 0.02 µM and 150 to 350 µM.
As to `CC1=C[C@]23C(=O)[C@@H](C=C(CO)[C@@H](O)[C@]2(O)[C@H]1Oc1nccc2ccsc12)[C@H]1[C@@H](C[C@H]3C)C1(C)C` [Compound 123, 3-O-(Thieno[2,3-c]pyridine-7-yl)-ingenol], the results for the EC50 in experiment [1], in experiment [2] and in experiment [3] were 0.02 to 0.1 µM, under 0.02 µM and at least 350 µM, respectively.
As to `CC1=C[C@]23C(=O)[C@@H](C=C(CO)[C@@H](O)[C@]2(O)[C@H]1Oc1ncccc1C)[C@H]1[C@@H](C[C@H]3C)C1(C)C` [Compound 124, 3-O-(3-Methyl-2-pyridyl)-ingenol], the EC50 in experiment [1] is at least 0.1 µM; in experiment [2] it was at least 0.1 µM; in experiment [3], at least 350 µM.
`CC1=C[C@]23C(=O)[C@@H](C=C(CO)[C@@H](O)[C@]2(O)[C@H]1Oc1noc2cc(Cl)ccc12)[C@H]1[C@@H](C[C@H]3C)C1(C)C` [Compound 125, 3-O-(6-Chloro-1,2-benzoxazol-3-yl)-ingenol]: the EC50 is under 0.02 µM in experiment [1], under 0.02 µM in experiment [2] and under 150 µM in experiment [3].
For `CC1=C[C@]23C(=O)[C@@H](C=C(CO)[C@@H](O)[C@]2(O)[C@H]1Oc1nccc2sccc12)[C@H]1[C@@H](C[C@H]3C)C1(C)C` [Compound 127, 3-O-(Thieno[3,2-c]pyridine-4-yl)-ingenol], the EC50 in experiment [1] fell in the range of 0.02 to 0.1 µM; in experiment [2], 0.02 to 0.1 µM; in experiment [3], 150 to 350 µM.
In the case of `CC1=C[C@]23C(=O)[C@@H](C=C(CO)[C@@H](O)[C@]2(O)[C@H]1Oc1noc2cccc(F)c12)[C@H]1[C@@H](C[C@H]3C)C1(C)C` [Compound 128, 3-O-(4-Fluoro-1,2-benzoxazol-3-yl)-ingenol], the EC50 is under 0.02 µM in experiment [1], under 0.02 µM in experiment [2] and 150 to 350 µM in experiment [3].
On to `COc1cccnc1O[C@H]1C(C)=C[C@]23C(=O)[C@@H](C=C(CO)[C@@H](O)[C@]12O)[C@H]1[C@@H](C[C@H]3C)C1(C)C` [Compound 129, 3-O-(3-Methoxy-pyridin-2-yl)-ingenol], for which the results for the EC50 in experiment [1], in experiment [2] and in experiment [3] were at least 0.1 µM, at least 0.1 µM and at least 350 µM, respectively.
Consider `COc1ccc2onc(O[C@H]3C(C)=C[C@]45C(=O)[C@@H](C=C(CO)[C@@H](O)[C@]34O)[C@H]3[C@@H](C[C@H]5C)C3(C)C)c2c1` [Compound 130, 3-O-(5-Methoxy-1,2-benzoxazol-3-yl)-ingenol], for which the EC50 in experiment [1] is under 0.02 µM; in experiment [2], under 0.02 µM; in experiment [3], 150 to 350 µM.
On to `CC1=C[C@]23C(=O)[C@@H](C=C(CO)[C@@H](O)[C@]2(O)[C@H]1Oc1noc2ccc(Cl)cc12)[C@H]1[C@@H](C[C@H]3C)C1(C)C` [Compound 131, 3-O-(5-Chloro-1,2-benzoxazol-3-yl)-ingenol], for which the EC50 in experiment [1] was under 0.02 µM; in experiment [2], under 0.02 µM; in experiment [3], under 150 µM.
As for `COc1ccc2c(O[C@H]3C(C)=C[C@]45C(=O)[C@@H](C=C(CO)[C@@H](O)[C@]34O)[C@H]3[C@@H](C[C@H]5C)C3(C)C)noc2c1` [Compound 132, 3-O-(6-Methoxy-1,2-benzoxazol-3-yl)-ingenol], the EC50 in experiment [1] was under 0.02 µM; in experiment [2], under 0.02 µM; in experiment [3], at least 350 µM.
Consider `CC1=C[C@]23C(=O)[C@@H](C=C(CO)[C@@H](O)[C@]2(O)[C@H]1Oc1noc(C(C)C)n1)[C@H]1[C@@H](C[C@H]3C)C1(C)C` [Compound 133, 3-O-(5-Isopropyl-1,2,4-oxadiazol-3-yl)-ingenol], for which the EC50 is 0.02 to 0.1 µM in experiment [1], 0.02 to 0.1 µM in experiment [2] and at least 350 µM in experiment [3].

The record behind these values is US9422309B2, “3-O-heteroaryl-ingenol” (LEO LABORATORIES LIMITED, priority 2012, dated 2016).
